Laboratory results reported in patent publication US9212167B2, “Mitochondrial targeted stimulators of apoptosis” (The Rockefeller University, priority 2011, dated 2015).

Columns and labels:
Format in all cases: cell-based
HeLa cells [1] = test: Count of apoptotic HeLa cells with and without pan-caspase inhibitor ZVAD-FMK; details: 40 μM, 3 or 6 hours
Procedure: To verify the induction of apoptosis by Compound 15, HeLa cells were treated with 40 μM of the compound and incubated for 3 or 6 hours in the presence and absence of pan-caspase inhibitor ZVAD-FMK. Apoptotic cells were counted at the indicated times in each condition.

HeLa cells [2] = test: Alamar Blue cell viability, HeLa cells; details: ten-point dose response, up to 50 μM, FIG. 1
Procedure: (§1) The compound described above as Compound 15 was tested for its effect on the viability of cells using Alamar Blue staining. This reagent takes advantage of the conversion by healthy cells of a non-fluorescent molecule, resazurin, to the brightly red-fluorescent resorufin. The assay was performed in 384 well plate format, and the fluorescence (560 nm Ex/590 nm Em) was detected and quantified using a Perkin-Elmer Envision plate reader. Four samples were compared. Samples were the compound identified as 2PA in paragraph [0014] (i.e. just “A” without “L” or “B”), a dimer of 2PA (i.e. A-L-A, wherein L is C6H4):
(§2) PK11195 alone and Compound 15. Ten-point dose responses were performed in both HeLa and T98G cells to determine the concentration at which each compound was effective.

T98G cells = test: Alamar Blue cell viability, T98G cells; details: ten-point dose response, up to 50 μM, FIG. 2
Procedure: as §1, §2

| SMILES | induction of apoptosis (apoptotic cells counted) (HeLa cells [1]; absence of ZVAD-FMK) | induction of apoptosis (apoptotic cells counted) with caspase inhibitor (HeLa cells [1]; presence of pan-caspase inhibitor ZVAD-FMK) | cell killing (percent survival as a function of concentration) (HeLa cells [2]) | cell killing (percent survival as a function of concentration) (T98G cells) |
| --- | --- | --- | --- | --- |
| CN[C@@H](C)C(=O)N[C@H](C(=O)N1CCC[C@H]1Cn1nnnc1Sc1ccccc1)C(C)OCc1cn(CCOCCOCCOCCNC(=O)c2cc3ccccc3c(-c3ccccc3Cl)n2)nn1 (stereo partly shown) [Compound 15] | can induce cell death | the caspase inhibitor can prevent this induction of cell death | kills both HeLa and T98G cells effectively | kills both HeLa and T98G cells effectively |
| CNC(C)C(=O)NC(C(=O)N1CCCC1Cn1nnnc1Sc1ccccc1)C(C)OCC#CC#CCOC(C)C(NC(=O)C(C)NC)C(=O)N1CCCC1Cn1nnnc1Sc1ccccc1 (stereo not shown) [dimer] | – | – | do not kill at any concentration | do not kill at any concentration |
| C#CCOC(C)C(NC(=O)C(C)NC)C(=O)N1CCCC1Cn1nnnc1Sc1ccccc1 (stereo not shown) [monomer] | – | – | do not kill at any concentration | do not kill at any concentration |
| CCC(C)N(C)C(=O)c1cc2ccccc2c(-c2ccccc2Cl)n1 (stereo not shown) [PK11195] | – | – | do not kill at any concentration | do not kill at any concentration |
